From patent US7655778B2, “SISP-1, a novel p53 target gene and use thereof” (priority 2006, dated 2010)

Experiments:
[1] = test system: HCT116 colon carcinoma cells; assay: Cell death Elisa (DNA fragmentation) after adenoviral SISP-1 infection; type: cell-based, human; conditions: etoposide 30 μM, 24 hours, 12 hour post infection
Protocol: (§1) Next, the inventor investigated the apoptotic effects of SISP-1 expression in human colon cancer cells and breast carcinoma cells by using adenovirus expressing SISP-1. […] Adenoviruses expressing HA-tagged SISP-1 (Ad-SISP-1) or GFP (Ad-GFP as a control) were generated, amplified and titrated. HCT 116 colon carcinoma cells and MDAMB435 breast cancer cells were grown to 50-70% confluency and infected with recombinant adenovirus at multiplicity of infection (MOI) of 15-30. […] Then, cell death rate was measured by DNA fragmentation assay (Cell death Elisa kit, Roche).

[2] = test system: MDAMB435 breast cancer cells; assay: as above; type: cell-based, human; conditions: etoposide 30 μM, 24 hours, 12 hour post infection
Protocol: as §1

[3] = test system: U2OS osteosarcoma cells; assay: Cell-Death Elisa, tetracycline-inducible SISP-1 plus etoposide; type: cell-based; conditions: SISP-1 or etoposide (15 μM) alone, FIG. 9A
Protocol: U2OS-tet-on-SISP-1 cells were generated by isolating tetracycline regulated stable-clones expressing SISP-1 upon tetracycline addition (doxycycline, Sigma). U2OS-SISP-1 cells were cultured in the presence or absence of doxycycline (1 μg/ml) for 24 hours.

[4] = test system: U2OS osteosarcoma cells; assay: Etoposide-induced cell death with inducible SISP-1 (FIG. 10); type: cell-based; conditions: over 48 hours
Text: (§2) The present inventor further examined whether SISP-1 could also sensitize U2OS cells that is known to be quite resistant to chemo-drugs.
(§3) The inventor re-evaluated this effect in a rapidly growing human bladder carcinoma cell line, EJ, since SISP-1 may be used a strong candidate as a new sensitizing molecule that improves the therapeutic efficacy and minimizes the toxicity of chemo-drugs. To further confirm the sensitizing effects of SISP-1 expression in a combination of chemo-drugs, we generated tumor cells containing the tetracycline-regulated inducible expression of SISP-1 using U2OS and EJ lines.

[5] = test system: EJ bladder carcinoma cells; assay: as above; type: cell-based, human; conditions: over 48 hours
Text: as §2, §3

[6] = test system: IMR90 normal diploid fibroblasts; assay: Northern blot of SISP-1 mRNA induction by genotoxic drugs; type: cell-based; conditions: IMR90 cells; etoposide 50 μM or CPT 600 nM, 24-48 hours; FIG. 4A
Protocol: IMR90 normal diploid fibroblasts (Obtained from ATCC) were cultured in Dulbecco's modified Eagle's medium (DMEM, Invitrogen)) containing 10% fetal bovine serum (FBS, Hyclone), 100 units/ml of penicillin, and 100 μg/ml of streptomycin at 37° C. […] Then, total RNA was extracted, denatured, electrophoresed through a 1% agarose-formaldehyde gel and transferred to a nylon membrane. Hybridization was performed with ^32P-labeled probes, SISP1, p21 or 36B4 (a loading control) prepared by the randomly primed DNA labeling method.

Row | Structure (SMILES) | sensitization of SISP-1 overexpressing cells by etoposide [1] | sensitization of SISP-1 overexpressing cells by etoposide [2] | cell death by single treatment [3] | cell death by etoposide itself [4] | cell death by etoposide itself [5] | expression of SISP-1 mRNA [6]
1 | COc1cc([C@@H]2c3cc4c(cc3[C@@H](O[C@@H]3O[C@@H]5CO[C@@H](C)O[C@H]5[C@H](O)[C@H]3O)[C@H]3COC(=O)[C@H]23)OCO4)cc(OC)c1O [etoposide, reference compound] | selectively sensitized | selectively sensitized | did not induce cell death | induced a limited cell death | induced a limited cell death | –
2 | CC[C@@]1(O)C(=O)OCc2c1cc1n(c2=O)Cc2cc3ccccc3nc2-1 [CPT, camptothecin] | – | – | – | – | – | induced
